From US20030055106A1, “Therapeutic uses of peroxometallic compounds” (priority 1999, published 2003)

Key:
left carotid artery = assay: Balloon angioplasty of the left carotid artery (restenosis); assay type: in vivo, Male Sprague-Dawley rats
Method: The data presented in Table IV show the effect of the pV compound bpV(bipy) on restenosis. Male Sprague-Dawley rats (325-350 g) were anaesthetized with Rogarsetic, a mixture of ketamine hydrochloride and xylazine hydrochloride. The animals were divided into two groups of 14-31 rats that underwent balloon angioplasty of the left carotid artery, with or without treatment (108). The treated group received bpV (bipy) (10 mg/kg/i.p. b.i.d.) for 14 days, starting on the day of the angioplasty. Every animal in each group underwent balloon angioplasty of the left external carotid whereas the contra-lateral carotid served as a control for each animal. The left carotid artery balloon angioplasty was performed under aseptic conditions. The left external carotid was isolated and an arteriotomy was performed. A 2F Fogarty arterial embolectomy catheter was then inserted in the left common carotid and positioned near the aortic arch. The balloon was then inflated and retracted with a twisting motion to its insertion point. This procedure was repeated twice and the external carotid was ligated. There were no differences in the lumina (L), intima (I), media (M), the ratio of I/M and calculated value of (M−L/P) as a measure of neointimal proliferation (NIP) between normal, non-ballooned carotid artery of treated and non-treated rats, serving as controls (data not shown).

HUVECs = assay: HUVEC differentiation and organization into tubular-like structures in fibrin matrix; assay type: cell-based, Human; parameters: key to cords / tubes / Stell. struct.: †: Dead cells
Method: Alternatively, HUVECs cultured in a fibrin matrix can form 3-dimensional tubular-like structures in the presence of serum (103). This assay was performed in the presence of either bpV(phen), bpv(pic) or vanadate to assess the influence of each one of these compounds on HUVEC differentiation and organization (Table 1). HUVECs were seeded on the bottom of gelatin-coated wells at high density to provide a confluent monolayer at 48 hours.
Then, 50 000 HUVECs/ml were embedded in fibrinogen solution prior to polymerization. The fibrin matrix was covered with culture medium containing the molecule to be tested, while culture medium without any of these molecules served as controls. Cell behavior was observed periodically by phase contrast microscopy.

Rat aorta rings = assay: Rat aortic ring assay (cell/microvessel migration in fibrin gel); assay type: cell-based
From the text: FIG. 3: Micrographs of the cell migration from aortic rings embedded in fibrin (×12).
FIG. 4: Quantification of the cell migration from aortic rings in the presence of orthovanadate (plain bars); bpV(phen) (light gray bars); and bpV(pic) (dark gray bars). The control appears as an empty bar. Means and standard errors of the means are presented.
Rat aorta rings were embedded in fibrin matrix as previously described (107). Thoracic aortas excised from adult rats were rinsed in Hank's balanced salt solution (HBSS), and cleansed of periadventitial. One-mm long aortic rings were sectioned and rinsed in culture medium. Each of the aortic rings were then embedded in fibrin gel matrix. Migration of microvessels in fibrin gel was quantified by measuring the distance from the external surface of rat aortic rings towards the migrating vessels. Measurements were performed at day 15 by digitizing morphometry with a NIH image analysis system (FIGS. 3 and 4).

[1] = test system: Human umbilical vein endothelial cells (HUVECs); conditions: read-out: approximate IC50, endothelial cell proliferation; 96 hours in culture
Method: Each experiment was performed in triplicate. The culture medium was changed daily.

[2] = test system: vitelline membrane of chick embryos; assay: Embryonic vascularization test (EVT) ex ovo; assay type: in vivo; conditions: for approximate IC50, neovascularization (regardless of the scoring system): per methylcellulose disc
From the text: FIG. 2: A and B show an anti-angiogenic response to bpV(phen), orthovanadate (Van) and protamine (Prot) using a vascularization test on the vitelline membrane of chick embryos. Each point represents a minimum of 15 embryos (15 to 28).
The normal development of a chick embryo involves the formation of an external vascular system which is located in the vitelline membrane and which carries nutrients from the vitellus (yolk of the egg) to the developing embryo. When placed onto the vitelline membrane, anti-angiogenic substances can inhibit blood vessel development in the vitelline membrane. To facilitate access to the vitelline membrane, chick embryos were transferred to a sterile culture box (Petri dish) and placed in a humidity- and temperature-controlled incubator. Embryos could then develop in this ex ovo condition for several days.
An aliquot of the tested compound was mixed with a methylcellulose solution and allowed to air-dry into thin discs. Methylcellulose forms an inert matrix from which the tested compound can diffuse slowly. Methylcellulose discs containing the tested compound were placed on the external border of the vascular perimeter of the vitelline membrane where the angiogenic process was still active.
The effects of the discs containing the tested compound on proximal vascular development were, in all cases, compared with those of discs containing control buffer. The discs were placed on the embryos' vitelline membrane on Day 0 or Day 1 of the ex ovo growth process; at this point, only beginnings of the main blood vessels are invading the vitellus. The embryos were then put in culture conditions until vascularization was assessed (approximately 24 h). Control buffer- and compound-containing discs were in all cases added simultaneously on the vitelline membrane of the same embryo. Both discs were arranged in a symmetrical fashion with respect to the cephalo-caudal axis of the embryo in order to minimize inter-individual variations when comparing the tested compounds with controls.
[…] After one day in culture, the level of vascularization in the area covered by the discs was graded by a pair of scientists in the usual blind fashion. To facilitate the location of the discs, black O-rings were placed around them just after their placement on the vitelline membrane. The evaluation scale for the EVTs was based on two different scoring systems.
Blood vessel formation was assessed in a blind fashion. The areas of the vitelline membranes that lay beneath the methylcellulose discs were scored for the degree of vascularization, using two scoring systems (“N/+” or “1-2-3”). The following selection criteria were used:
A score of “N” for “Normal” was attributed when all the following conditions were met:
Blood vessels in the evaluated area grew along their path with no abnormal deviation. Collateral branching density was normal and the growth path of the lateral branches was also normal.
A score of “+” was attributed when at least one of the following conditions was met:
1-2-3 Grading Scale System:
A score of 3 was attributed when the following conditions were met:
A score of 2 was attributed when at least one of the following conditions was met:
A score of 1 was attributed when at least one of the following conditions was met:
A score of 3 meant that blood vessel development was normal whereas a score of 1 indicated the greatest degree of angiostatic activity.

ETs (ET-1, ET-2, ET-3) = assay: Plasma endothelin levels after insulin (RIA); assay type: in vivo; conditions: rats; two minutes after insulin 1.5 μg/100 g b.w.; no bpV(phen)
Method: The data presented in Table III show the effect of bpV(phen) on the plasmatic levels of ETs. […] Two minutes following insulin administration (1.5 μg/100 g b.w, or vehicle), the plasma levels of ETs were determined. Insulin administration induced a strong increase of seric ET concentration (54). […] In addition, bpV(phen) decreased the insulin-stimulated levels of plasmatic ETs below control levels. […] ETs (ET-1, ET-2, ET-3) were measured by RIA (Amersham kit RPA 555) after lyophilization and extraction on C2 columns (500 mg). Results are mean ±SEM, p<0.0209, control (n=4) vs Insulin, pV (n=3).

[3] = 10 mg/kg/i.p. b.i.d. for 14 days, ballooned left carotid
[4] = treated vs non-treated, 10 mg/kg/i.p. b.i.d. 14 days
[5] = anti-angiogenic effect on stellate structures

Compound: [K+].[O]=[V-]12([O][O]1)[O][O]2.c1ccc(-c2ccccn2)nc1 [bpV(bipy), potassium bisperoxo(2,2′-bipyridyl) oxovanadate]
- I (intima) (left carotid artery; [3]): 0.112 mm^2
- I/M (left carotid artery; [3]): 1.086
- L (lumina) (left carotid artery; [3]): 0.112 mm^2
- M (media) (left carotid artery; [3]): 0.104
- NIP (neointimal proliferation) (left carotid artery; [3]): 0.045 mm
- decrease in NIP (left carotid artery; [4]): 32%
- decrease in the I/M ratio (left carotid artery; [4]): 32%
- increase in the opening of the L (left carotid artery; [4]): 28%
- reduction in the thickness of the I (left carotid artery; [4]): 21%

Compound: O=C(O)c1ccccn1.OO.OO.[K+].[K+].[O]=[V] [bpV(pic), potassium bisperoxo(pyridine-2-carboxylato)oxovanadate]
- structures observed by phase contrast microscopy (HUVECs; 1, 2 and 3.5 μM): cords and tubes were observed
- cell migration from aortic rings (Rat aorta rings; 10-25 μM): inhibition was seen
- IC50 [1]: ~3.5 µM

Compound: [O]=[V]([O-])([O-])[O-] [orthovanadate]
- structures observed by phase contrast microscopy (HUVECs; 10 μM): cords were still apparent
- Stell. struct. (HUVECs; 25 μM): †
- cords (HUVECs; 25 μM): †
- structures observed by phase contrast microscopy (HUVECs; 25 μM): dead cells were sparsely distributed
- tubes (HUVECs; 25 μM): †
- times less potent than bpV(phen) (HUVECs; [5]): ≥ 5 times
- times less potent than bpV(pic) (HUVECs; [5]): at least 3 times
- cell migration from aortic rings (Rat aorta rings; 3.5 μM): no effect
- cell migration from aortic rings (Rat aorta rings; 25 μM): partial inhibition
- Anti-angio.activity 1 to 3 (1: no angiogenesis; 3: normal angiogenesis) ([2]; 0.001 μg, Assay 3): 2.8
- Anti-angio.activity % (proportion of embryos showing an anti-angiogenic response) ([2]; 0.001 μg, Assay 3): 7%
- Anti-angio.activity 1 to 3 (1: no angiogenesis; 3: normal angiogenesis) ([2]; 0.001 μg, Assay 5): 2.8
- Anti-angio.activity % (proportion of embryos showing an anti-angiogenic response) ([2]; 0.001 μg, Assay 5): 7%
- Anti-angio.activity 1 to 3 (1: no angiogenesis; 3: normal angiogenesis) ([2]; 0.01 μg, Assay 3): 2.4
- Anti-angio.activity % (proportion of embryos showing an anti-angiogenic response) ([2]; 0.01 μg, Assay 3): 24%
- Anti-angio.activity 1 to 3 (1: no angiogenesis; 3: normal angiogenesis) ([2]; 0.01 μg, Assay 5): 2.4
- Anti-angio.activity % (proportion of embryos showing an anti-angiogenic response) ([2]; 0.01 μg, Assay 5): 24%
- Anti-angio.activity 1 to 3 (1: no angiogenesis; 3: normal angiogenesis) ([2]; 0.1 μg, Assay 3): 2.4
- Anti-angio.activity % (proportion of embryos showing an anti-angiogenic response) ([2]; 0.1 μg, Assay 3): 28%
- Anti-angio.activity 1 to 3 (1: no angiogenesis; 3: normal angiogenesis) ([2]; 0.1 μg, Assay 5): 2.4
- Anti-angio.activity % (proportion of embryos showing an anti-angiogenic response) ([2]; 0.1 μg, Assay 5): 28%
- Anti-angio.activity 1 to 3 (1: no angiogenesis; 3: normal angiogenesis) ([2]; 1 μg, Assay 3): 2.0
- Anti-angio.activity % (proportion of embryos showing an anti-angiogenic response) ([2]; 1 μg, Assay 3): 70%
- Anti-angio.activity 1 to 3 (1: no angiogenesis; 3: normal angiogenesis) ([2]; 1 μg, Assay 4): 1.7
- Anti-angio.activity % (proportion of embryos showing an anti-angiogenic response) ([2]; 1 μg, Assay 4): 57%
- Anti-angio.activity 1 to 3 (1: no angiogenesis; 3: normal angiogenesis) ([2]; 1 μg, Assay 5): 1.9
- Anti-angio.activity % (proportion of embryos showing an anti-angiogenic response) ([2]; 1 μg, Assay 5): 64%
- approximate IC50, neovascularization (regardless of the scoring system) [2]: ~0.6 µg

Compound: Insulin: insulin administered to rats to induce an increase of ET concentration
- Plasma endothelins (ETs (ET-1, ET-2, ET-3)): 253.10 pg/mL

Compound: Protamine
- Anti-angio.activity 1 to 3 (1: no angiogenesis; 3: normal angiogenesis) ([2]; 5 μg, Assay 1): 2.3
- Anti-angio.activity % (proportion of embryos showing an anti-angiogenic response) ([2]; 5 μg, Assay 1): 23%
- Anti-angio.activity 1 to 3 (1: no angiogenesis; 3: normal angiogenesis) ([2]; 5 μg, Assay 4): 2.3
- Anti-angio.activity % (proportion of embryos showing an anti-angiogenic response) ([2]; 5 μg, Assay 4): 9%
- Anti-angio.activity 1 to 3 (1: no angiogenesis; 3: normal angiogenesis) ([2]; 5 μg, Assay 5): 2.3
- Anti-angio.activity % (proportion of embryos showing an anti-angiogenic response) ([2]; 5 μg, Assay 5): 16%
- Anti-angio.activity 1 to 3 (1: no angiogenesis; 3: normal angiogenesis) ([2]; 10 μg, Assay 4): 2.1
- Anti-angio.activity % (proportion of embryos showing an anti-angiogenic response) ([2]; 10 μg, Assay 4): 54%
- Anti-angio.activity 1 to 3 (1: no angiogenesis; 3: normal angiogenesis) ([2]; 10 μg, Assay 5): 2.1
- Anti-angio.activity % (proportion of embryos showing an anti-angiogenic response) ([2]; 10 μg, Assay 5): 54%
- Anti-angio.activity 1 to 3 (1: no angiogenesis; 3: normal angiogenesis) ([2]; 20 μg, Assay 1): 2.0
- Anti-angio.activity % (proportion of embryos showing an anti-angiogenic response) ([2]; 20 μg, Assay 1): 46%
- Anti-angio.activity 1 to 3 (1: no angiogenesis; 3: normal angiogenesis) ([2]; 20 μg, Assay 2): 1.5
- Anti-angio.activity % (proportion of embryos showing an anti-angiogenic response) ([2]; 20 μg, Assay 2): 80%
- Anti-angio.activity 1 to 3 (1: no angiogenesis; 3: normal angiogenesis) ([2]; 20 μg, Assay 3): 1.5
- Anti-angio.activity % (proportion of embryos showing an anti-angiogenic response) ([2]; 20 μg, Assay 3): 79%
- Anti-angio.activity 1 to 3 (1: no angiogenesis; 3: normal angiogenesis) ([2]; 20 μg, Assay 4): 1.8
- Anti-angio.activity % (proportion of embryos showing an anti-angiogenic response) ([2]; 20 μg, Assay 4): 80%
- Anti-angio.activity 1 to 3 (1: no angiogenesis; 3: normal angiogenesis) ([2]; 20 μg, Assay 5): 1.7
- Anti-angio.activity % (proportion of embryos showing an anti-angiogenic response) ([2]; 20 μg, Assay 5): 71%
- Anti-angio.activity 1 to 3 (1: no angiogenesis; 3: normal angiogenesis) ([2]; 30 μg, Assay 4): 1.8
- Anti-angio.activity % (proportion of embryos showing an anti-angiogenic response) ([2]; 30 μg, Assay 4): 67%
- Anti-angio.activity 1 to 3 (1: no angiogenesis; 3: normal angiogenesis) ([2]; 30 μg, Assay 5): 1.8
- Anti-angio.activity % (proportion of embryos showing an anti-angiogenic response) ([2]; 30 μg, Assay 5): 67%
- approximate IC50, neovascularization (regardless of the scoring system) [2]: ~11 µg
